Measurements as given in patent US11629171B2, “Beta-hairpin peptidomimetics” (POLYPHOR AG, priority 2017, dated 2023).
Values after ≈ are worked out from the molar mass of the structure shown. Where a SMILES comes first, the peptide text is derived from it. Bridges are numbered along the chain shown (N, C = ends). Roman numbers before positions name the chains, in order. [ ]: non-standard residue; d: D form. dDab = NCC[C@@H](N)C(=O)O; Dab = NCC[C@H](N)C(=O)O; Abu = CC[C@H](N)C(=O)O; Dap = NC[C@H](N)C(=O)O

Assays:
[1] = system: Enterobacter cloacae 848840; assay type: cell-based; conditions: 848840
Procedure, shortened: (§1)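 CLSI broth microdilution in cation-adjusted Mueller-Hinton II broth with 0.002% polysorbate 80 (final), inoculum appr. 10^6 CFU/mL, peptides in serial two-fold dilutions. MIC (μg/mL) is the lowest concentration without visible growth after 18-20 h at 35° C.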

Escherichia coli 926415 = assay type: cell-based; conditions: 926415
Procedure, shortened: as §1

[2] = system: Klebsiella pneumoniae SSI #3010; assay type: cell-based; conditions: SSI #3010
Procedure, shortened: as §1

[3] = system: Acinetobacter baumannii DSM 30008; assay type: cell-based; conditions: DSM 30008
Procedure, shortened: as §1

[4] = system: Escherichia coli ATCC 25922; assay type: cell-based; conditions: ATCC 25922
Procedure, shortened: as §1

[5] = system: Klebsiella pneumoniae 968733; assay type: cell-based; conditions: 968733
Procedure, shortened: as §1

[6] = system: Acinetobacter baumannii 872842; assay type: cell-based; conditions: 872842
Procedure, shortened: as §1

[7] = system: Pseudomonas aeruginosa ATCC 27853; assay type: cell-based; conditions: ATCC 27853
Procedure, shortened: as §1

male ICR mice = test: Tolerability in a mouse model (Maximum Tolerated Dose assay); assay type: in vivo; conditions: 2 × 30 mg/kg s.c. at a 12-hr interval, groups of 3
Procedure, shortened: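 Peptides in 0.9% NaCl (pH 6.5-7.6) given s.c. at 30 or 40 mg/kg, twice 12 h apart, to groups of 3 male ICR mice (23±3 g). Acute toxic signs (mortality, convulsions, tremors, sedation) and autonomic effects (diarrhea, salivation, piloerection) observed for 30 min after each dose.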

[8] = system: human red blood cells (hRBC); test: Hemolysis; assay type: cell-based; conditions: red cells of human, 1 h, 200
Procedure, shortened: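 Read-out is supernatant absorbance at 540 nm, normalised to full lysis by 2% Triton X-100 and zero lysis by PBS with 10% water. Peptides (200 μg/mL) were exposed to 20% v/v washed human erythrocytes at 37° C for 1 h under shaking.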

Q: Which MIC [1] does the source give for `CC[C@@H]1NC(=O)[C@@H](CC(C)C)NC(=O)[C@H](CCN)NC(=O)[C@@H](NC(=O)[C@H](CN)NC(=O)[C@@H](NC(=O)[C@H](CCN)NC(=O)CC[C@@H]2NC(=O)[C@H](CO)NC(=O)[C@H](Cc3ccc(O)cc3)NC(=O)[C@@H](NC(=O)[C@@H](NC(C)=O)C(C)C)CSSC[C@@H](C(=O)N[C@@H](CO)C(N)=O)NC(=O)[C@H]([C@@H](C)CC)NC(=O)[C@H](CO)NC(=O)[C@H](Cc3c[nH]c4ccccc34)NC(=O)[C@H](CCN)NC(=O)[C@@H](CCN)NC2=O)[C@@H](C)O)CCNC(=O)[C@H]([C@@H](C)O)NC(=O)[C@H](CCN)NC(=O)[C@H](CCN)NC1=O` [Ex. 257] (I: Ac-VCYSE[dDab][Dab]WSICS-NH2 / II: [Dab]T[Dap][Dab][Dab][dL][Abu][Dab][Dab]T; disulfide I:2-I:11; amide I:5-II:N; lactam II:4-II:C) here?
A: 0.0625 mg/L (≈ 0.0262 µM)

Q: And the MIC (Escherichia coli 926415)?
A: 0.0625 mg/L (≈ 0.0262 µM)

Q: What about the MIC [2] of the same compound?
A: 0.03125 mg/L (≈ 0.0131 µM)

Q: What about the MIC [3] of the same compound?
A: 0.03125 mg/L (≈ 0.0131 µM)

Q: What about the MIC [4] of the same compound?
A: 0.03125 mg/L (≈ 0.0131 µM)

Q: What about the MIC [5] of the same compound?
A: 0.125 mg/L (≈ 0.0524 µM)

Q: And the MIC [6]?
A: 0.03125 mg/L (≈ 0.0131 µM)

Q: What about the MIC [7] of the same compound?
A: 0.0625 mg/L (≈ 0.0262 µM)

Q: What about the Mortality and dose (male ICR mice) of the same compound?
A: 0/3 died at 2 × 30 mg/kg

Q: And the “Hemolysis at 200 μg/mL” value [8]?
A: 1%
